Measured values taken from US20240287134A1, “PEPTIDES FOR USE AS SENOTHERAPEUTIC AGENTS” (FUNDACIÓN PROFESOR NOVOA SANTOS, priority 2019, published 2024).
Where a SMILES comes first, the peptide text is derived from it. Where no end group is shown, it is not given here. The star is where a group is joined. X1 = CN(C)c1ccc2c(c1)Oc1cc(N(C)C)ccc1C21OC(=O)c2ccc(C(=O)*)cc21; TMR = fluorophore attached at the N-terminus

How the values were obtained:
Assay type in all cases: cell-based, human
[1] = system: Cx43 in OA chondrocytes; experiment: Western-blot of Cx43 levels; details: 16 hours, vs untreated (UT)
Text: (§1) FIG. 4. Decrease in Cx43 levels in chondrocytes from patients with OA treated with peptides YSA1, YTP1 and TUB1. […] The decrease in the levels and activity of Cx43 activates the re-differentiation of the chondrocyte and decreases the accumulation of senescent cells, restoring the adult chondrocyte phenotype and tissue regeneration capacity. […] The results obtained were confirmed by western-blot using α-tubulin as loading control. […] (d) Chondrocytes isolated from donors with osteoarthritis were treated for 16 hours with the YTP1 peptide (150 μM) and the Cx43 levels were analysed by western blot, using α-tubulin as loading control. […] (e) Chondrocytes isolated from donors with OA were treated for 16 hours with the 8Arg-YSA1 peptide (5 μM) and the Cx43 levels were analysed by western blot, using α-tubulin as loading control. […] (g) Chondrocytes isolated from donors with OA were treated for 16 hours with the TUB1 peptide (5 μM) and the Cx43 levels were analysed by western blot, using the intensity of the Ponceau stain as loading control.
The cell pellet isolated from patients with OA and treated with the peptides or untreated were mechanically and chemically lysed using a needle of 29 gauges (BD Medical) in the presence of a cold lysis buffer (50 mM Tris HCl pH 7.5; 50 mM EDTA pH 8, 0.5% NP-40, 1% Triton X-100, 150 mM NaCl). Once the cell extracts were obtained, they were diluted in loading buffer (10% SDS, 200 mM Tris HCl pH 6.8, 50% glycerol, 0.1% Bromophenol Blue, 10% […]). Equal amounts of the cell extracts were separated on a 10% Acrylamide/Bisacrylamide (Acr/Bis) gel with SDS. The proteins were subsequently transferred to a polyvinylidene fluoride membrane (PVDF, Merck) in a Trans-Blot® SD Semi-Dry Transfer Cell (Bio-Rad). It was verified that the transfer was correct by staining the membrane with ATX Ponceau S (Sigma-Aldrich). To block possible nonspecific binding with the membrane, 1-hour incubation was performed at room temperature with a 5% milk solution in a TTBS buffer (20 mM Tris, 150 mM NaCl, 0.05% Tween-20). […]

[2] = system: gap junctions (GJs) formed by Cx43 in OA chondrocytes; experiment: Scrape Loading/Dye Transfer (SL/DT) assay; details: 150 μM, 16 hours, vs untreated (UT)
Protocol: FIG. 5. Peptides YSA1 and YTP1 decrease intercellular communication through gap junctions (GJs) formed by Cx43 in OA chondrocytes. (a) Scrape Loading/Dye Transfer (SL/DT) assay in which the transfer of Lucifer Yellow (LY) fluorophore between contact chondrocytes through GJs is studied.
Cells were seeded in culture plates to an approximate 90% confluence. After treating the cells with the peptides, the medium was removed and washed twice with PBS. The fluorescent compound Lucifer Yellow (LY, Cell Projects Ltd © Kent) 0.4% in PBS was added and two cuts were made, one with a scalpel and the other with a needle on the cell monolayer. The cells were incubated for 5-7 minutes at 37° C. to allow the transfer of the LY between undamaged cells in contact, after which the LY was removed, and cells were washed with PBS. The cells were fixed with 4% formaldehyde for 10 minutes. The visualization was performed in an inverted fluorescence microscope (Inverted Research Microscope Eclipse Ti, Nikon).
A Scrape Loading/Dye Transfer (SL/DT) test was performed in which the transfer of Lucifer Yellow fluorophore (LY) between contact chondrocytes through GJs was studied.

[3] = system: Cx43 in OA chondrocytes; experiment: Immunofluorescence for the detection of Cx43; details: 200 μM, against untreated (UT) cells
Text: as §1
Primary cultures of chondrocytes at a confluence of 70-80% were treated with mimetic peptides of Cx43, and fixed with 2-4% paraformaldehyde (PFA, Sigma-Aldrich) in phosphate buffered saline (PBS, MP Biomedicals) for 10 minutes at room temperature. […]

[4] = system: primary chondrocytes from articular cartilage of patients with OA; experiment: MTT cell viability assay to study toxicity; details: 1-10-60-600 μM, 16 hours, with respect to untreated cells
Protocol: FIG. 2. Cell viability assay to study toxicity. A MTT viability assay was carried out in primary chondrocytes from articular cartilage of patients with OA treated with increasing concentrations of the peptide 8Arg-YSA1 (1-10-60-600 μM, with the octaarginine sequence and the TMR), for 16 hours.
An initial number of cells (5,000-10,000) were seeded in a 96-well culture plate and treated with different concentrations of the peptides. After the treatment, the medium was removed from each well and 10 μL of the MTT reagent was added to 100 μL of fresh medium and incubated at 37° C. for 4 hours. To solubilize the formazan crystals of the MTT reagent, it was incubated with DMSO at room temperature and under stirring for 30 minutes. Absorbance was measured at 570 nm in a plate reader (Nanoquant Infinite M200, TECAN).
Such as it is explained in FIG. 2, a MTT viability assay was carried out on primary chondrocytes from articular cartilage of patients with OA treated with increasing concentrations of the peptide 8Arg-YSA1 (1-10-60-600 μM, with the arginine sequence and the TMR), for 16 hours.

[5] = 150 μM, α-tubulin loading control

Compound	Cx43 levels (western blot) ([1]; 5 μM, Ponceau stain loading control)	Cx43 levels (western blot) [1, 5]	cell coupling through GJs (Lucifer Yellow transfer) [2]	positivity for Cx43 (immunofluorescence) [3]	cell viability (MTT) [4]
Nt-FKGVKDRVKGK-Ct ({TMR}-FKGVKDRVKGK) [TUB1, TMR-labelled]	reduced the Cx43 levels	–	–	–	–
Nt-GKSDPYHATSGALSPAKD-Ct ({TMR}-GKSDPYHATSGALSPAKD) [YSA1, residues 242-259 of the C-terminal domain of Cx43; labelled at N-terminus with TMR fluorophore]	–	significantly reduced the levels of Cx43	decrease in cell coupling	decrease in positivity	–
Nt-GKSDPYHATTGPLSPAKD-Ct ({TMR}-GKSDPYHATTGPLSPAKD) [YTP1, TMR-labelled]	–	reduced the levels of Cx43	decreased cell coupling	decrease in positivity	–
CC(C)C[C@H](NC(=O)[C@H](C)NC(=O)CNC(=O)[C@H](CO)NC(=O)[C@@H](NC(=O)[C@H](C)NC(=O)[C@H](Cc1c[nH]cn1)NC(=O)[C@H](Cc1ccc(O)cc1)NC(=O)[C@@H]1CCCN1C(=O)[C@H](CC(=O)O)NC(=O)[C@H](CO)NC(=O)[C@H](CCCCN)NC(=O)CNC(=O)[C@H](CCCNC(=N)N)NC(=O)[C@H](CCCNC(=N)N)NC(=O)[C@H](CCCNC(=N)N)NC(=O)[C@H](CCCNC(=N)N)NC(=O)[C@H](CCCNC(=N)N)NC(=O)[C@H](CCCNC(=N)N)NC(=O)[C@H](CCCNC(=N)N)NC(=O)[C@H](CCCNC(=N)N)NC(=O)c1ccc2c(c1)C1(OC2=O)c2ccc(N(C)C)cc2Oc2cc(N(C)C)ccc21)[C@@H](C)O)C(=O)N[C@@H](CO)C(=O)N1CCC[C@H]1C(=O)N[C@@H](C)C(=O)N[C@@H](CCCCN)C(=O)N[C@@H](CC(=O)O)C(=O)O [8Arg-YSA1] (X1-RRRRRRRRGKSDPYHATSGALSPAKD-OH)	–	–	–	–	did not affect cell viability
